Values joined by “and” are separate entries in the source; they are usually repeats but may differ in a detail not shown here. Identical values can stand only once. Counter-ions that a name gives are not always drawn. Marks after values point to notes of the source that are not given here.
Legend:
[1] = target: T1, recombinant human D4 receptors (Homo sapiens, UniProt P21917); test: Inhibition of forskolin-stimulated cAMP accumulation in intact CHO cells; type: cell-based; settings: read-out: in vitro Functional Activity EC50, hD4, geometric mean (95%CI)
T1 sequence (P21917 1-419): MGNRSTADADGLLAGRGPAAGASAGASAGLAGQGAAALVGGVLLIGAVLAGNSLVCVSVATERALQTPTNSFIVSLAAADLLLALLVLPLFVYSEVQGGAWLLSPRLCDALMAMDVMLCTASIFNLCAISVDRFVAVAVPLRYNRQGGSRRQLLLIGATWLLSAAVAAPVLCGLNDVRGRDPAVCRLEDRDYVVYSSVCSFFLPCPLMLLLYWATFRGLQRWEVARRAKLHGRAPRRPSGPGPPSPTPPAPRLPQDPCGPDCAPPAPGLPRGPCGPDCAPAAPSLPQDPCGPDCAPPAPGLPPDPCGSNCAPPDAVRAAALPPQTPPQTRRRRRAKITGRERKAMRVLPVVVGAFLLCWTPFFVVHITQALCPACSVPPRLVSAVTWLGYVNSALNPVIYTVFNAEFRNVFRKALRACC

drug-naïve rats = test: Acquisition of IV self-administration under FR1 in drug-naïve rats; type: in vivo, rat; settings: for % Met, Both Criteria Met / % Met, criterion ≥ 15 Injections per Session / % Met, criterion ≥ 70% Active Lever Selection: FR1, 18 sessions, n=7
[2] = tested on: rats trained to self-administer cocaine; test: Fixed ratio; type: in vivo, rat; settings: for FR5 responding when substituted for cocaine, relative to saline: cocaine and 7-OH-DPAT 0.032–1.0, PF-592,379 0.01–1.0 mg/kg/inj i.v., n=6
[3] = tested on: rats trained to self-administer cocaine; test: Progressive ratio; type: in vivo, rat; settings: for Total Injections / Total Responses / Final Ratio Achieved: maximally effective dose (cocaine 1.0, 7-OH-DPAT 0.32, PF-592,379 0.1 mg/kg/inf), mean (SEM); for PR responding when substituted for cocaine, relative to saline: cocaine 0.032–1.0, 7-OH-DPAT and PF-592,379 0.1–1.0 mg/kg/inj
[4] = tested on: rats trained to discriminate 5.6 mg/kg cocaine from saline; settings: rat, in vivo; for maximum cocaine-appropriate responding: sc
rats = test: Locomotor activity observed at large doses; type: in vivo, rat; settings: PF-592,379 doses as large as 32.0 mg/kg
[5] = target: T1, recombinant human D4 receptors; test: In vitro competition binding, [3H]spiperone, CHO cell membranes; settings: read-out: in vitro Binding Affinity Ki, hD4, geometric mean (95%CI)
[6] = target: T2, recombinant human D3 receptors (Homo sapiens, UniProt P35462); test: Inhibition of forskolin-stimulated cAMP accumulation in intact CHO cells; type: cell-based
[7] = target: T2, recombinant human D3 receptors; settings: cAMP accumulation; ref Attkins et al., 2010; cited from earlier work
[8] = target: recombinant human D2 receptors (Homo sapiens, UniProt P14416); test: In vitro competition binding, [3H]U-86170, CHO cell membranes
[9] = target: recombinant human D1 receptors (Homo sapiens, UniProt P21728); test: In vitro competition binding, [3H]SCH23390, CHO cell membranes
[10] = target: recombinant human D5 receptors (Homo sapiens, UniProt P21918); test: as above
[11] = target: T2, recombinant human D3 receptors; test: In vitro competition binding, [3H]spiperone, CHO cell membranes; settings: no binding up to 10 µM
D3 or D2 receptor = settings: ref Collins et al., 2007; cited from earlier work
D3 receptor = settings: ref Millan et al., 2002; cited from earlier work
D2 receptor = settings: ref McCall et al., 2005; cited from earlier work
[12] = 0.32 mg/kg per injection IV, FR1

T2 sequence (P35462 whole entry): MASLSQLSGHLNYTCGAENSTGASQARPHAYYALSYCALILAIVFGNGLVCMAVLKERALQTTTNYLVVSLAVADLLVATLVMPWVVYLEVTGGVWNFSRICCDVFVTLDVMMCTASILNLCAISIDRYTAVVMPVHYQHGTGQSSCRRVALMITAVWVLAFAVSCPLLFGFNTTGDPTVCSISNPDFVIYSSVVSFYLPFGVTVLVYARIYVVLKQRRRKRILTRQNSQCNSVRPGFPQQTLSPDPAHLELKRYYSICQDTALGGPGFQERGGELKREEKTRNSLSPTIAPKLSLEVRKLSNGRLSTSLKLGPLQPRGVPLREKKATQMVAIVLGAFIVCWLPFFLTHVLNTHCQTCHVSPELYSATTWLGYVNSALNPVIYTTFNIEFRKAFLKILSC
Chain of recombinant human D2 receptors (P14416 whole entry): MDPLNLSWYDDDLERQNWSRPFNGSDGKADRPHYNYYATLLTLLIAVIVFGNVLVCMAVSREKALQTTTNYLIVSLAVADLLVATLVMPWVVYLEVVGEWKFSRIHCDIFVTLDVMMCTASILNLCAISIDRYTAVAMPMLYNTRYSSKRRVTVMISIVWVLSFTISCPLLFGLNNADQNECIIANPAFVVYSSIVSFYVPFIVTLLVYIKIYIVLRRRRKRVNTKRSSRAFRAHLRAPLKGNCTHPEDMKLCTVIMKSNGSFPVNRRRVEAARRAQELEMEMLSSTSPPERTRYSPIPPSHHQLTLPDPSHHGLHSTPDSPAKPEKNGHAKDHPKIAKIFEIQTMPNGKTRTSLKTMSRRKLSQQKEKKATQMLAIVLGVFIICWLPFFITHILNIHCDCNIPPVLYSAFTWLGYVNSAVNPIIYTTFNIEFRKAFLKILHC
Chain of recombinant human D1 receptors (P21728 whole entry): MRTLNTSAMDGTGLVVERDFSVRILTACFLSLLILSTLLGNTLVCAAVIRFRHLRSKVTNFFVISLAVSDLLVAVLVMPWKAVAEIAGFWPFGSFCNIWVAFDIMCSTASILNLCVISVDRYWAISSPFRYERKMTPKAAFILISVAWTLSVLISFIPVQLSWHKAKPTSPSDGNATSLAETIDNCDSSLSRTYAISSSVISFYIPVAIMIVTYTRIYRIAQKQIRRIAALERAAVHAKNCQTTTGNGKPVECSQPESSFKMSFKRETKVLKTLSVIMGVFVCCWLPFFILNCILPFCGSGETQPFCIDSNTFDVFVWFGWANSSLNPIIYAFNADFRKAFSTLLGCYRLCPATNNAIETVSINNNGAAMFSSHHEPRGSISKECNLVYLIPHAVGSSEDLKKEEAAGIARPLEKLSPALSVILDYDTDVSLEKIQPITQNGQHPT
Chain of recombinant human D5 receptors (P21918 whole entry): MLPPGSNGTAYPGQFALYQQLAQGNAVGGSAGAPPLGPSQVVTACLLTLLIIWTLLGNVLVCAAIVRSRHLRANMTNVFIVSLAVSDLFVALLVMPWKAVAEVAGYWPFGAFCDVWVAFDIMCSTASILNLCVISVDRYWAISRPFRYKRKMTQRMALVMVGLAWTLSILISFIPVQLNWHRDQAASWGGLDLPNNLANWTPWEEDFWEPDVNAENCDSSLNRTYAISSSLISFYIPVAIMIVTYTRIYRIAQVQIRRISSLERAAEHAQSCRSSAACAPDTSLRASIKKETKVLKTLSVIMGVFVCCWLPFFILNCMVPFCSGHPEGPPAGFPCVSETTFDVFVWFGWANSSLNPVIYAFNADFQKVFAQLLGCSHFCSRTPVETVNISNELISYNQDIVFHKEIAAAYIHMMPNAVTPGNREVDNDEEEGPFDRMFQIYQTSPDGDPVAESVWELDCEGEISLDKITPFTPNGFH

Structure (SMILES): Br.CCCN(CCC)C1CCc2ccc(O)cc2C1 (racemic) [7-OH-DPAT, (±)-7-Hydroxy-2-dipropylaminotetralin HBr]
- EC50 [1]: 45.2 nM
- Sessions to Criteria (SEM), criterion ≥ 15 Injections per Session (drug-naïve rats; [12]): 15.5 (1.5) sessions
- % Met, Both Criteria Met (drug-naïve rats; 0.32 mg/kg per injection IV): 0%
- % Met, criterion ≥ 15 Injections per Session (drug-naïve rats; 0.32 mg/kg per injection IV): 28%
- doses maintaining FR5 responding significantly greater than saline ([2]; FR5, i.v.): 0.1 mg/kg/inj
- Total Injections ([3]; PR): 17.2 (5.4)
- Total Responses ([3]; PR): 690.5 (303.7)
- substitution for the discriminative stimulus effects of cocaine [4]: only partially substituted for cocaine
- maximum cocaine-appropriate responding [4]: 59% and ~ 60%
- effect on locomotor activity (rats): stimulated locomotor activity
- Ki [5]: 110 nM

Structure (SMILES): COC(=O)[C@H]1[C@@H](OC(=O)c2ccccc2)C[C@@H]2CC[C@H]1N2C [Cocaine, Cocaine HCl]
- Sessions to Criteria (SEM), Both Criteria Met (drug-naïve rats; [12]): 11.0 (2.3) sessions
- Sessions to Criteria (SEM), criterion ≥ 15 Injections per Session (drug-naïve rats; [12]): 11.8 (2.4) sessions
- Sessions to Criteria (SEM), criterion ≥ 70% Active Lever Selection (drug-naïve rats; [12]): 10.4 (2.1) sessions
- % Met, Both Criteria Met (drug-naïve rats; 0.32 mg/kg per injection IV): 71%
- % Met, criterion ≥ 15 Injections per Session (drug-naïve rats; 0.32 mg/kg per injection IV): 86%
- % Met, criterion ≥ 70% Active Lever Selection (drug-naïve rats; 0.32 mg/kg per injection IV): 71%
- FR5 responding when substituted for cocaine, relative to saline [2]: maintained dose-dependent levels of responding
- doses maintaining significantly more PR responding than saline ([3]; PR, i.v.): ≥ 0.1 mg/kg/inj
- Final Ratio Achieved ([3]; PR): 172.0 (40.4) ^***
- Total Injections ([3]; PR): 31.0 (3.4) ^***
- Total Responses ([3]; PR): 1895.0 (687.3) ^**
- PR responding when substituted for cocaine, relative to saline [3]: monotonic increases in responding

Structure (SMILES): CCCN1C[C@@H](c2ccc(N)nc2)OC[C@@H]1C [PF-592,379, 5-[(2R,5S)-5-methyl-4-propylmorpholin-2-yl]pyridin-2-amine]
- functional selectivity for D3 over D2 receptors [6]: at least 470 fold
- Sessions to Criteria (SEM), criterion ≥ 15 Injections per Session (drug-naïve rats; [12]): 3 (n.a.) sessions
- % Met, Both Criteria Met (drug-naïve rats; 0.32 mg/kg per injection IV): 0%
- % Met, criterion ≥ 15 Injections per Session (drug-naïve rats; 0.32 mg/kg per injection IV): 14%
- % Met, criterion ≥ 70% Active Lever Selection (drug-naïve rats; 0.32 mg/kg per injection IV): 0%
- drug earned during the first few acquisition sessions (drug-naïve rats; 0.32 mg/kg/inj, FR1): approximately 3 mg/kg
- injections per session by the end of the acquisition period (drug-naïve rats; 0.32 mg/kg/inj, FR1): < 5 injections per session
- injections per session when substituted for cocaine ([2]; FR5 or PR schedule, doses as large as 1.0 mg/kg): < 5 injections per session
- FR5 responding when substituted for cocaine, relative to saline [2]: no different than saline
- Final Ratio Achieved ([3]; PR): 8.9 (2.1)
- Total Injections ([3]; PR): 1.3 (0.5)
- Total Responses ([3]; PR): 18.5 (11.7)
- PR responding when substituted for cocaine, relative to saline [3]: Low, saline-like levels of responding
- responding at the largest doses tested, relative to baseline [4]: ~ 15 % of baseline
- substitution for the discriminative stimulus effects of cocaine [4]: nearly exclusive responding on the saline-appropriate lever
- maximum cocaine-appropriate responding [4]: 3.5%
- effect on locomotor activity (rats): only a mild inhibition of locomotor activity
- agonist efficacy at the D3 receptor [7]: full agonist
- IC50 [8]: ≥ 10000 nM
- IC50 [9]: ≥ 10000 nM
- IC50 [10]: ≥ 10000 nM
- binding selectivity for D3 over D2, D1, and D5 receptors [11]: at least 46 fold

Structure (SMILES): CCCN[C@H]1CCc2nc(N)sc2C1 [pramipexole]
- range of doses over which the D3 or D2 receptor is selectively activated in vivo (D3 or D2 receptor): ≤ 30 fold
- in vitro radioligand binding selectivity for the D3 over D2 (D3 receptor): ~ 100 fold

Structure (SMILES): CN[C@@H]1Cc2cccc3[nH]c(=O)n(c23)C1 [sumanirole]
- in vitro radioligand binding selectivity for the D2 over D3 receptor (D2 receptor): ~ 200 fold
- range of doses over which the D3 or D2 receptor is selectively activated in vivo (D3 or D2 receptor): ≤ 30 fold
